Measured values as given in US20150374676A1, “HELICASE-PRIMASE INHIBITORS FOR USE IN A METHOD OF TREATING ALZHEIMER'S DISEASE” (AICURIS GMBH & CO. KG, priority 2013, published 2015).

How the values were obtained:
[1] = Multiple-dose escalation, steady state pharmacokinetics in healthy volunteers; assay type: in vivo, human; conditions: steady state after once daily single doses for 21 days
[2] = fraction unbound in murine plasma; assay type: in vitro ADME; conditions: mouse

CS(=O)(=O)O.Cc1nc(N(C)C(=O)Cc2ccc(-c3ccccn3)cc2)sc1S(N)(=O)=O [mono mesylate monohydrate salt, N-[5-(aminosulfonyl)-4-methyl-1,3-thiazol-2-yl]-N-methyl-2-[4-(2-pyridinyl)-phenyl]acetamide mono methanesulfonic acid monohydrate] showed a t1/2z on average ([1]; 100 mg dosage as free base equivalent) of 60 ± 4 h, an AUC ([1]; human, plasma, oral, 25 mg dosage as free base equivalent) of 23400 ± 3020 ng·h/mL and a Cmax ([1]; human, plasma, oral, 25 mg dosage as free base equivalent, read-out: mean maximum blood plasma concentration at steady state (mean Cmax,ss) of the free base) of 1360 ± 167 ng/mL. The AUC ([1]; human, plasma, oral, 100 mg dosage as free base equivalent) was 109000 ± 28600 ng·h/mL and the fraction unbound [2] was 0.028.
